Results published in ChEMBL document CHEMBL5365519, “Design and Characterization of 1,3-Dihydro-2H-benzo[d]azepin-2-ones as Rule-of-5 Compliant Bivalent BET Inhibitors” (ACS Med Chem Lett, 2023).
Converted amounts (≈) assume the structure as drawn.

How the values were obtained:
[1] = target: T1, C-C motif chemokine 2 (Homo sapiens, UniProt P13500); assay: Inhibition of MCP-1 in LPS-stimulated human PBMC cells pretreated with compound for 30 mins followed by LPS-stimulation and measured after 10 mins by microplate analysis; type: cell-based
[2] = target: T2, Bromodomain-containing protein 4 (Homo sapiens, UniProt O60885); assay: Inhibition of BRD4 BD1 (unknown origin) by TR-FRET assay
[3] = target: T2, Bromodomain-containing protein 4; assay: Inhibition of BRD4 BD2 (unknown origin) by TR-FRET assay
[4] = target: T1, C-C motif chemokine 2; assay: Inhibition of MCP-1 in LPS-stimulated human whole blood pretreated with compound for 30 mins followed by LPS-stimulation and measured after 10 mins by microplate analysis; type: tissue-based
[5] = target: T2, Bromodomain-containing protein 4; assay: Inhibition of histone binding to BRD4 (unknown origin) expressed in HEK293 cells using histone H3.3 as substrate incubated for 18 to 24 hrs by nano-BRET analysis; type: cell-based
[6] = target: T2, Bromodomain-containing protein 4; assay: Inhibition of halo-tagged BRD4 (unknown origin) expressed in HEK293 cells incubated for 4 hrs by biosensor assay; type: cell-based
[7] = Lipophilicity, logD of compound at pH 7.4 by HPLC analysis; type: physicochemical; conditions: buffer
[8] = Solubility of compound in simulated lung fluid at pH 6.9; type: physicochemical
[9] = tested on: HL-60; assay: Antiproliferative activity against human HL-60 cells assessed as inhibition of cell growth incubated for 72 hrs by cell-titer glo assay; type: functional, cell-based; conditions: HL-60, 72 h
[10] = Antiproliferative activity against human NMC 11060 cell assessed as inhibition of cell growth incubated for 72 hrs by cell-titer glo assay; type: functional, cell-based; conditions: NMC 11060, 72 h
[11] = tested on: MV4-11; assay: Antiproliferative activity against human MV4-11 cells assessed as inhibition of cell growth incubated for 72 hrs by cell-titer glo assay; type: functional, cell-based; conditions: MV4-11, 72 h

T1 sequence (P13500 whole entry): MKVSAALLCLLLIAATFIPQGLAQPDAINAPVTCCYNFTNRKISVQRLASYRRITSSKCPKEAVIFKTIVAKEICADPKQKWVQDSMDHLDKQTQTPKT

Compound	pIC50 ([1]; pbmc)	IC50 [2] [nM]	IC50 [3] [nM]	IC50 [4] [nM]	IC50 [1] [nM]	IC50 [5] [nM]	EC50 [6] [nM]	logD [7]	solubility [8] [µg/mL]	IC50 [9] [nM]	IC50 [10] [nM]	IC50 [11] [nM]
CC(=O)Nc1c(F)cc(C(=O)N[C@H]2CC[C@H](O)CC2)cc1O[C@@H](C)c1ccccc1 [GSK046]	7.5	–	–	–	–	–	–	–	–	–	–	–
C[C@H]1C(=O)N(C)C=Cc2cc(CN3CCN(Cc4ccc5c(c4)C=CN(C)C(=O)[C@@H]5C)CC3)ccc21	–	15.8	25.1	6.31	< 0.2	0.501	2	5.43	465 (≈ 959 µM)	–	–	–
C[C@H]1C(=O)N(C)C=Cc2cc(OCCCCCCCOc3ccc4c(c3)C=CN(C)C(=O)[C@@H]4C)ccc21	–	79.4	39.8	79.4	< 2	1	3.98	8.5	–	–	–	–
CC1C(=O)N(C)C=Cc2ccc(OCCCCCOc3ccc4c(c3)C(C)C(=O)N(C)C=C4)cc21 (configuration not stated)	–	631	3980	15800	–	–	–	7.5	–	–	–	–
COCc1nc2cnc3cc(-c4c(C)noc4C)c(OC[C@H]4CCNC4)cc3c2n1[C@H](C)c1ccccc1 [GSK778]	–	–	–	158	–	–	–	–	–	–	–	–
CC1C(=O)N(C)C=Cc2ccc(OCCCCCCOc3ccc4c(c3)C(C)C(=O)N(C)C=C4)cc21 (configuration not stated)	–	3160	≥ 1580	3980	–	> 1000	1000	–	–	–	–	–
C[C@H]1C(=O)N(C)C=Cc2cc(OCCCOc3ccc4c(c3)C=CN(C)C(=O)[C@@H]4C)ccc21	–	100	39.8	50.1	< 2	15.8	2.51	6.7	< 1	–	–	–
C[C@H]1C(=O)N(C)C=Cc2cc(OCCCCCOc3ccc4c(c3)C=CN(C)C(=O)[C@@H]4C)ccc21	–	39.8	20	12.6	< 2	0.631	7.94	7.4	< 1	–	–	–
C[C@H]1C(=O)N(C)C=Cc2cc(OCCOc3ccc4c(c3)C=CN(C)C(=O)[C@@H]4C)ccc21	–	63.1	31.6	126	0.251	0.631	1.26	5.8	–	–	–	–
COc1cc2c(cc1-c1c(C)noc1C)ncc1[nH]c(=O)n([C@H](C)c3ccccn3)c12	–	–	–	200	39.8	–	–	–	–	126	631	–
COc1nnc2ccc(N3CCC(c4ccc(OCCN5CCN(C)C(=O)[C@H]5C)cc4)CC3)nn12 [AZD-5153]	–	398	3160	15.8	3.16	15.8	15.8	–	–	–	–	–
C[C@H]1C(=O)N(C)C=Cc2cc(OCCCCOc3ccc4c(c3)C=CN(C)C(=O)[C@@H]4C)ccc21	–	3.16	6.31	5.01	0.0398	0.316	1.58	7.1	2 (≈ 4.34 µM)	0.398	0.794	0.501
C[C@@H]1C(=O)N(C)CCN1CCOc1ccc(C2CCN(c3ccc4nncn4n3)CC2)cc1	–	25100	39800	2000	200	398	1000	–	–	–	–	–
Cc1sc2c(c1C)C(c1ccc(Cl)cc1)=N[C@@H](CC(=O)OC(C)(C)C)c1nnc(C)n1-2	–	–	–	631	6.31	–	–	–	–	–	–	–
COc1cc2c(cc1OC)[C@@H](C)C(=O)N(C)C=C2	–	–	–	1000	50.1	–	–	–	–	–	–	–
COCC(COC)n1c(-c2cc(C)c(=O)n(C)c2)nc2cc(N3CCOCC3)ccc21	–	–	–	25.1	7.94	–	–	–	–	–	–	–
